88 compounds from a melting point compilation (Tetko et al.; mined from patent text by program, amines drawn as free bases though some values may be those of a salt) can be followed below.

A value given as a limit tells only on which side of the number the result lay.

For `CCOc1ccc2c(c1)cc1n2CCC1`, the melting point lay within 101 to 102 °C. Consider `CCOC(=O)c1cc(C(C)(C)C)n(-c2ccc(S(C)(=O)=O)cc2)n1`, for which the melting point was in the range of 175 to 178 °C. The compound `COc1ccc2nc3cc(Cl)ccc3c(Oc3ccc(Cl)cc3)c2c1` returned a melting point of 152 to 153 °C. The value for `COc1ccc(-c2c(NCCc3cccc(C(F)(F)F)c3)c(=O)c2=O)cc1` was 220 to 222 °C; that for `CC(=O)C(=Cc1ccc(S(C)(=O)=O)c(F)c1)C(C)=O` was 140 to 143 °C. For `COC(=O)[C@H]1[C@H](c2ccc3c(c2)OCO3)c2ccc(O)cc2[C@@H]1c1ccc(OC)cc1` (racemic) the value was 187 to 188 °C; for `Cc1cc(C#N)cn2cc(-c3cccc(Br)c3)nc12`, 168 to 170 °C; for `CCCCN(CCCC)Cc1nc(-c2ncn3c2CN(C)C(=O)c2cc(F)ccc2-3)no1`, 137 to 140 °C. The value for `CCOC(=O)c1cn(CC)c2nc(OC)c([N+](=O)[O-])cc2c1=O` was 224 to 227 °C; that for `Cc1cc(-n2ccnc2)c2cccc(OCc3c(Cl)ccc(S(=O)(=O)N4CCC[C@H]4C(=O)NCCN4CCOCC4)c3Cl)c2n1` was 100 °C.

On to `CC(=O)c1ccc(Nc2c(F)c(F)cc(F)c2F)c(CC(=O)N(C)C)c1`, for which the melting point lay in the range of 112 to 114 °C. The value for `O=c1c2c([nH]n1-c1ccc(Cl)cc1)-c1ccccc1SC2` was 235 to 237 °C; that for `O=C1C=C(c2ccc(OC(F)(F)F)cc2)CO1` was 122 to 123 °C; that for `N#CCNC(=O)c1ccc(Cl)c(Cl)c1` was 144 to 145 °C. The value for `CN(C)c1ccc(-c2cc(C(F)(F)F)c3c(-c4ccccc4)nn(COCC[Si](C)(C)C)c3n2)cc1` was 98 °C; that for `O=C(Cc1ccc(OCc2ccccc2)cc1)Nc1nnc(-c2cccc(Oc3cccc(C(F)(F)F)c3)c2)s1` was 194 to 195 °C. For `O=C(c1ccccc1)c1cnn2c(-c3ccncc3)ccnc12` the value was 185 to 186 °C. Take `Cc1ccc(-c2cnc3c(N)ncnc3n2)cc1`: the melting point came to 315 °C.

For `CC1=NS(=O)(=O)N(C)C(Oc2cccnc2)=N1`, the melting point fell in the range of 137 to 138 °C. For `COc1ccc(CN(CCC(=O)O)c2nc(NC(=O)Nc3ccccc3OC)nc(Oc3ccc4ccccc4c3)n2)cc1`, the melting point is 197 to 205 °C. For `CC(=O)Oc1ccc(-c2cc3ccc(OC(C)=O)cc3s2)cc1` the value was 208 to 210 °C. For the compound `COC(=O)c1ccc2c(c1)S(=O)(=O)c1ccccc1NC2`, the melting point amounted to 236 °C. The value for `COc1ccc2c(c1)C(=O)CC21CNC(=O)C1` (stereo not drawn) was 179 to 180 °C; that for `CC1=C(c2ccc(C(=O)N3Cc4cccn4Cc4ccccc43)cc2)CCCC1` was 119 to 120 °C. Compound `Nc1ccc(-c2nc(Cc3ccccc3)no2)cc1Br` showed a melting point of 144 to 145 °C. For the compound `Nc1c(-c2ccc(C(F)(F)F)cc2)nc2ccc(F)cc2c1C(=O)O`, the melting point was 260 to 262 °C. For `COC(=O)CC1=C(C)/C(=C/c2ccc(S(C)(=O)=O)cc2)c2ccc(F)cc21` the value was 162 to 164 °C. For `O=C(OCc1c(Cl)ccc2cc(Cl)cnc12)c1ccccc1[N+](=O)[O-]` the value was 152 °C.

The compound `COP(=O)(CC(=O)[C@H](Cc1ccccc1)NC(=O)OC(C)(C)C)OC` registered a melting point of 76 to 78 °C.

`COC(=O)c1ccc(Cc2cn(CC(=O)N(C)C)c3ccc(NC(=O)CC4CCCC4)cc23)c(OC)c1` yielded a melting point of 129 to 132 °C. Regarding `CCOC(=O)c1cnc2nc(SCc3ccccc3)nn2c1C`, the melting point lay within 98 to 99 °C. The compound `CC(C)(ON1C(C)(C)CC(OC(=O)CCCCCCCCC(=O)OC2CC(C)(C)N(OC(C)(C)c3ccccc3)C(C)(C)C2)CC1(C)C)c1ccccc1` gave a melting point of 94 to 96 °C.

As to `CCCN=C(N)Nc1ccnc(CCCCc2ncc(C)c(O)n2)n1`, the melting point was in the range of 213 to 215 °C. For `COC1(c2cnc(Sc3ccc(/C(C)=N/O)cc3)s2)CCOCC1` the value was 114 to 116 °C. Compound `O=C(Oc1cccc(Cl)c1)c1ncn2c1[C@@H]1CCCN1C(=O)c1c(Cl)cccc1-2` came in with a melting point of 194 to 195 °C.

In turn, `CCN(CC)S(=O)(=O)c1ccccc1N` registered a melting point of 45 to 51 °C.

Compound `CC1Nc2ccccc2N2CCc3cccc1c32` (stereo not drawn) came in with a melting point of 127 to 134 °C.

`CCOC(=O)c1c(C(F)(F)F)nc(C(F)F)c(C(=O)OC)c1-n1cccn1` displayed a melting point of 42 to 52 °C. `c1ccc(-c2cc3n(n2)Cc2ccccc2-3)cc1` returned a melting point of 183 to 184 °C.

The compound `O=C(O)c1ccccc1Oc1ccc(C(F)(F)F)cc1NS(=O)(=O)c1ccc(Br)cc1` gave a melting point of 167 to 168 °C.

The compound `CCOC(=O)/C=C/c1ccc2c(=O)n(CC(C)C)c(CNC(=O)OC(C)(C)C)c(-c3ccccc3)c2c1` returned a melting point of 147 to 148 °C. For `Cc1nc2c3c(ccc2[nH]1)[C@@H](O)[C@H](O)[C@@H](c1ccccc1)O3` the value was 163 °C; for `Cc1cc(C)c(N2c3ccccc3Sc3cc(C=O)ccc32)c(C)c1`, 136 to 140 °C; for `CC(C)(C)OC(=O)NC(COCc1ccccc1)c1nc2c(C(F)(F)F)cccc2c(=O)o1` (stereo not drawn), 98 °C. In the case of `O=[N+]([O-])c1cc(Cl)c([N+](=O)[O-])c(Cl)c1`, the melting point was 109 to 112 °C. The value for `CSC(Cc1ccc(OCCN(C)c2nc3ccccc3o2)cc1)C(=O)O` (stereo not drawn) was 140 to 141 °C; that for `Nc1nc(N2CCNCC2)c2nc(-c3ccccc3)c(N)nc2n1` was 150 to 155 °C. The value for `Cc1nn(C)c2cc(-c3nn(C(C)c4oc5ccccc5c(=O)c4-c4cccc(F)c4)c4ncnc(N)c34)ccc12` (stereo not drawn) was 270 to 272 °C. `CCCNCc1cc2ccc(NC(=O)c3ccc(OC[C@@H]4CCCO4)cc3)c(C)c2[nH]1` gave a melting point of 117 to 119 °C. The value for `COC(C)(C)CNC(=O)c1cccc(-c2cccc3cc(Cc4cc(F)cc(Cl)c4)sc23)c1` was 89 to 90 °C; that for `CC(C)C(=O)Nc1ccoc1` was 120 °C. For `C=CCNC(=O)N1CC(c2ccc(C(C)(C)C)cc2)C1` the value was 98 to 99 °C. With `O=C(CCN1C(=O)CSC1=S)Nc1ccccc1[N+](=O)[O-]`, the melting point fell in the range of 170 to 171 °C. `CCOC(=O)c1ccc(-n2cncn2)cc1` showed a melting point of 97 to 99 °C.

In turn, `c1cc(NC2=NCCN2)ccc1Cc1cc(OC2CCCC2)cs1` yielded a melting point of 142 to 143 °C. As to `CCOC(=O)CCc1ccc(NC(C)=O)cc1`, the melting point was 52 to 53 °C. For `COc1cc2c(cc1OC)CN(CCCc1cccc(NC(=O)c3cccc4c(=O)c5cccc(F)c5[nH]c34)c1)CC2` the value was 128 °C; for `O=C(O)C=CC(=O)c1ccco1`, 153 to 155 °C; for `CO/C=C(/C(=O)OC)c1ccccc1CCl`, 85 to 88 °C.

`C=C1CCCCCCCSC[C@@H](C(=O)O)NC1=O` displayed a melting point of 184 to 186 °C.

The compound `O=c1cc(-c2ccc3[nH]ncc3c2)oc2ncc(CN3CCOCC3)cc12` registered a melting point of 293 °C. For `CCOC(=O)c1cc2cc(-c3ccc(OC(F)(F)F)cc3)ccc2n1Cc1ccc(C)cc1` the value was 77 to 78 °C; for `O=P1(O)Oc2ccccc2-c2cc(C(F)(F)F)ccc21`, 240 °C; for `O=C(O)C1CC(=O)N(c2ccccc2)C1c1cccnc1` (stereo not drawn), 229 to 232 °C.

Regarding `CC(C)(C(=O)O)C1OCCc2ccccc21` (stereo not drawn), the melting point is 110 to 116 °C. For `CN1CCn2c1nc(N1CCc3ccccc3CC1)c(C#N)c2=O` the value was 174 to 177 °C; for `O=C(Nc1ccc(-n2nc(C(F)(F)F)cc2C(F)(F)F)cc1)c1cc([N+](=O)[O-])cc([N+](=O)[O-])c1`, more than 230 °C. For `O=C1c2ccccc2C(=O)N1[C@@H]1C=CCC[C@@H]1O` (racemic) the value was 112 to 114 °C. The value for `CCCCCCCCCCCCCCCCCCC(N)CN` (stereo not drawn) was 98 to 101 °C; that for `COc1ccc(C(CCc2ccccc2)C(=O)O)cc1` (stereo not drawn) was 92 to 97 °C. `N#Cc1ncn2c(C(F)(F)F)cc(-c3ccc(Cl)cc3Cl)nc12` displayed a melting point of 139 °C. The value for `CCOC(=O)Cc1ccc(-c2nc(COc3ccc(COc4nn(-c5ccccc5)cc4/C=C/c4coc(C(C)(C)C)n4)cc3OC)c(C)o2)cc1` was 126 to 129 °C. With `COC(=O)c1ccc2nc(C)ccc2c1`, the melting point lay within 98 to 101 °C. For `CC(C)(C)CNc1nc(N2CCCC2)cc(N2CCNCC2)n1` the value was 118 to 120 °C; for `COc1ccc2c(c1OC)CCCC(C(=O)O)=C2`, 208 to 209 °C.

The compound `O=C(O)C(=O)c1ccc(OCCOc2ccc(Cl)cc2)cc1` displayed a melting point of 121 to 122 °C.

For `COc1ccc(Cn2c(=O)c3ccccc3n(CCCCN3CCC(OC(c4ccccc4)c4ccccc4)CC3)c2=O)cc1`, the melting point was in the range of 99 to 100 °C. For `CN1CCC(C2(O)c3sccc3CCn3ncnc32)CC1` (stereo not drawn) the value was 158 °C; for `CCOP(=S)(OCC)Oc1c(C(=O)c2ccccc2Cl)c(C)nn1C`, 71 to 74 °C. The value for `COC(=O)C1=Cc2cc(OCc3ccc(Cl)cc3)ccc2S(=O)(=O)CC1` was 130 to 133 °C; that for `N#Cc1ccc(OC[C@H]2C[C@@H](O)CN2c2ccc(C#N)c3ccccc23)c2ccccc12` was 123 to 126 °C; that for `COc1cc(C(C)C)c(Oc2cnc(N)nc2N)cc1-c1ccco1` was 199 to 203 °C. The value for `COc1nc2c(OCc3ccccc3)cccc2n1C` was 98 to 102 °C; that for `CCCc1c(OCC(O)CSc2ccc(CC(=O)O)c(Cl)c2Cl)ccc(C(C)=O)c1O` (stereo not drawn) was 151 to 153 °C; that for `COC(=O)c1cc(CC#N)cc(CC#N)c1` was 90 to 92 °C.

`COc1ccc(C(=O)Nc2ccc3sc(C)nc3c2Cl)cc1`: the melting point amounted to 182 °C. The value for `CCOc1nn(-c2ccc(C(F)(F)F)cn2)cc1CCOc1ccc(CCC(=O)O)c(C)c1` was 117 to 119 °C; that for `CCOC(=O)C1C(=O)Nc2ccccc2C1c1ccccc1` (stereo not drawn) was 178 to 180 °C.

Broadly, the melting point is the temperature of the solid-liquid transition.
